Source: patent publication US10711007B2, “Selective inhibitors of protein arginine methyltransferase 5 (PRMT5)” (Prelude Therapeutics, Incorporated, priority 2018, dated 2020)
pIC50: −log10 of the molar value.

Experiments:
PRMT5/MEP50 complex = PRMT5/MEP50 complex (Homo sapiens (Human), UniProt O14744); experiment: Biochemical assay: PRMT5/MEP50 methylation of histone H4 based AcH4-23, SPA readout; conditions: PRMT5/MEP50 2.5 nM, 300 nM AcH4-23, 1 μM 3H-SAM
Procedure: Biochemical Assay Protocol
Compounds were solubilized and 3-fold diluted in 100% DMSO. […] Standard reactions were performed in a total volume of 30 μl in assay buffer, with 300 nM histone H4 based AcH4-23 (Anaspec: AS-65002) as substrate. To this was added the PRMT5/MEP50 complex diluted to provide a final assay concentration of 2.5 nM and the compounds were allowed to preincubate for 20 minutes at 37° C. The reaction was initiated by adding S-[3H-methyl]-adenosyl-L-methionine (PerkinElmer: NET155001MC) to final concentration of 1 μM. Following a 30 minutes incubation at 37° C., the reaction was stopped by adding 25 μL of 8M Guanidine HCl. Prepare streptavidin YSI SPA beads (Perkinelmer: RPNQ0012) at 0.3 mg/mL in assay buffer. To each reaction, add 150 μL of SPA beads suspension, and incubated while shaking at room temperature for 30 minutes. The plate was centrifuged at 100×g for 30 second before reading in a scintillation counter. IC50 values were determined by fitting the data to the standard 4 parameters with Hill Slope using GraphPad Prism software.

[1] = system: sDMA marks (SmD3me2s) in U-87 MG cells; experiment: Western blotting for symmetric di-methyl arginine (sDMA) marks in U-87 MG cells; assay type: cell-based; conditions: Homo sapiens, 72 h; U-87 MG cell line, 3 days
Procedure: (§1) Cell Treatment and Western Blotting for Detecting Symmetric Di-Methyl Arginine (sDMA) Marks
(§2) Compound Titration and Cell Culture:
(§3) Compounds were dissolved in DMSO to make 10 mM stock and 3-fold series dilutions were further conducted to make working stocks top at 1 mM. Granta-519 cells were maintained in PRMI 1640 (Corning Cellgro, Catalog #: 10-040-CV) supplemented with 10% v/v FBS (GE Healthcare, Catalog #: SH30910.03) and U-87 MG cells were maintained in DMEM (Corning Cellgro, Catalog #: 10-013-CV) with 10% FBS and 2 mM Glutamin (Corning Cellgro, Catalog #25005CV).
To determine enzyme inhibition IC50 values in Granta-519 and U-87 MG cells using Western Blot analysis. One day before experiment, Granta-519 cells were passaged to a density of 0.5×10^6 cells/ml. U-87 MG cells were trypsinized and 4×10^5 cells were seeded into 6-well plates and allow to grow overnight. The next day, Granta-519 cells were spun down at 1,500 rpm for 4 min, resuspend in fresh medium at 0.5×10^6 cells/ml and 3 mL of culture (1.5×10^6 cells) were seeded into 6 well plate. Eight-point, 3-fold serial dilutions of compound working stocks were added to cells (3 ul, 1:1,000 dilution, DMSO concentration was 0.1%; final top concentration at 1 uM) and incubated for 3 days. Cells incubated with DMSO was used as a vehicle control.
Cells were harvested 3 days later, resuspended in 15 uL PBS, lysed in 4% SDS, and homogenized by passing through homogenizer column (Omega Biotek, Catalog #: HCR003). Total protein concentrations were determined by BCA assay (ThermoFisher Scientific, Catalog #: 23225). Lysates were mixed with 5× Laemmli buffer and boiled for 5 min. Forty ug of total protein was separated on SDS-PAGE gels (Bio-Rad, catalog #: 4568083, 4568043), transferred to PVDF membrane, blocked with 5% dry milk (Bio-Rad, Catalog #: 1706404) in TBS with 0.1% v/v Tween 20 (TBST) for 1 hour at room temperature (RT), and incubated with primary antibodies (sDMA: Cell signaling, Catalog #: 13222, 1:3,000; β-Actin: sigma, Catalog #: 1:5,000) in 5% dry milk in TBST at 4° C. overnight. The next day, membranes were washed with TBST, 5×5 min, and incubated with HRP conjugated seconded antibody (GE Healthcare; Catalog #: NA934-1ML, NA931-1ML; 1:5,000) for 2 hours at RT, followed by 5×5 min washes with TBST, and incubation with ECL substrates (Bio-Rad, Catalog #: 1705061, 1705062). Chemiluminescent signal was captured with Fluochem HD2 imager (Proteinsimple). SmD3me2s bands were quantified by ImageJ. Signals were normalized to β-Actin and DMSO control. IC50 values were calculated using Graphpad Prism ([Inhibitor] vs. normalized response-Variable slope).

[2] = system: sDMA marks (SmD3me2s) in Granta-519 cells; experiment: Western blotting for symmetric di-methyl arginine (sDMA) marks in Granta-519 cells; assay type: cell-based; conditions: Homo sapiens, 72 h; Granta-519 cell line (value in brackets), 3 days
Procedure: as §1, §2, §3
To determine enzyme inhibition IC50 values in Granta-519 and U-87 MG cells using Western Blot analysis. One day before experiment, Granta-519 cells were passaged to a density of 0.5×10^6 cells/ml. U-87 MG cells were trypsinized and 4×10^5 cells were seeded into 6-well plates and allow to grow overnight. […]
Cells were harvested 3 days later, resuspended in 15 uL PBS, lysed in 4% SDS, and homogenized by passing through homogenizer column (Omega Biotek, Catalog #: HCR003). Total protein concentrations were determined by BCA assay (ThermoFisher Scientific, Catalog #: 23225). […] SmD3me2s bands were quantified by ImageJ. […] IC50 values were calculated using Graphpad Prism ([Inhibitor] vs. normalized response-Variable slope).

U-87 MG cells = experiment: Cell proliferation assay (CCK-8, day 10) in U-87 MG cells; assay type: cell-based; conditions: Homo sapiens, 240 h, U-87 MG cell line, read-out: Prolif. IC50
Procedure: Cell Proliferation Assay to Determine IC50 in Granta-519 and U-87 MG Cells
One day before experiment, Granta-519 cells were passaged to a density of 0.5×10^6 cells/ml. U-87 MG cells were trypsinized and 2,000 cells were seeded into 96-well plates and allow to grow overnight. On the day of experiment (day 0), Granta-519 Cells were spun down at 1,500 rpm for 4 min, resuspended in fresh medium to 0.5×10^6 cells/ml and 190 ul of cells were added to 96 well plates. For U-87 MG cells, old medium was removed and replaced with 190 uL fresh medium. Compound working stocks were first diluted at 1:50 with fresh medium in 96 well plate and 10 μL of diluted drugs were added to 96 well plates containing cells and incubated for 3 days. DMSO was used a vehicle control.
One day 3, 50 uL of Granta-519 cells were transferred to a new 96-well plate and 140 uL fresh medium was added. For U-87 MG cells, old medium was removed and replaced with 190 uL fresh medium. Compound working stocks were freshly diluted at 1:50 with medium and 10 μL of diluted drugs were added to cells and grow for 3additional days. The same process was repeated on day 6. Cells were allowed to grow for additional 4 days.
On day 10, 100 uL Granta-519 cells were transferred to a new 96 well plate and 10 μL of Cell Counting Kit-8 (CCK-8, Jojindo, CK04-13) solution was added. For U-87 MG cells, old medium was removed and replaced with 100 uL fresh medium and 10 uL CCK-8 solution was added. Plates were incubated in CO2 incubator for 2 hours (Granta-519 cells) or 30 min (U-87 MG cells) and OD450 values were measured with a microplate reader (iMark microplate reader, Bio-Rad). Percentage of viable cells, relative to DMSO vehicle control, were calculated and plotted in Graphpad Prism ([Inhibitor] vs. normalized response-Variable slope) to determine proliferation IC50 values on day 10.

PRMT5/MEP50 complex, sequence (O14744 whole entry): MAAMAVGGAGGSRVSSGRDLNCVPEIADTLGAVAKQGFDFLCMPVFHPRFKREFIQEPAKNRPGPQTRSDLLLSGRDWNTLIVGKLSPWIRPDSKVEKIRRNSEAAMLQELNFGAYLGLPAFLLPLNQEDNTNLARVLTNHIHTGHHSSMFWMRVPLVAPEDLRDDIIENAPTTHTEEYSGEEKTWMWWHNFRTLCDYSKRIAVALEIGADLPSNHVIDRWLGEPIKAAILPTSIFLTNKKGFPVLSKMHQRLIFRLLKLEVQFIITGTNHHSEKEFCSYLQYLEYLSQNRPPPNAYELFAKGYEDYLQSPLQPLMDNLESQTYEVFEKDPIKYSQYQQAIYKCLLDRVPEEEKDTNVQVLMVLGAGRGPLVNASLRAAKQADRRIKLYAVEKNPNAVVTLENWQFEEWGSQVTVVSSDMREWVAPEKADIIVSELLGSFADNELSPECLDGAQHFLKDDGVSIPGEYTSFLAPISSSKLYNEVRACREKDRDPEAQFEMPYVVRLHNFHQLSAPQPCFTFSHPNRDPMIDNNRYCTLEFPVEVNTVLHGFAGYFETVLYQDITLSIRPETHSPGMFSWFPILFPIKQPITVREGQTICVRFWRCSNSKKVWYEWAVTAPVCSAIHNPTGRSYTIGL
PRMT5/MEP50 complex, sequence (Q9BQA1 whole entry partner): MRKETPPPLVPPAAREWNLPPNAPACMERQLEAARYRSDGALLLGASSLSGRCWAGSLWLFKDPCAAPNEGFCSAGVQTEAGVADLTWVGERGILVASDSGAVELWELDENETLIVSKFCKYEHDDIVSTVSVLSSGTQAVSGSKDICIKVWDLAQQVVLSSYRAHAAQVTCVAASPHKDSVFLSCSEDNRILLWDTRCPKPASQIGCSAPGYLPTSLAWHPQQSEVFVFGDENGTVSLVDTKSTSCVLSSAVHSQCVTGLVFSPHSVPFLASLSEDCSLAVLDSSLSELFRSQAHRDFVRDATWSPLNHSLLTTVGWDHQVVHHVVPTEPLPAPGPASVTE

Compound | pIC50 (PRMT5/MEP50 complex) | pIC50 [1] | pIC50 [2] | pIC50 (U-87 MG cells)
Nc1ncnc2c1ccn2[C@@H]1O[C@H]([C@@H]2OCc3cc(Cl)ccc32)[C@@H](O)[C@H]1O [Example 1A, (2R,3R,4S,5S)-2-(4-amino-7H-pyrrolo[2,3-d]pyrimidin-7-yl)-5-((R)-5-chloro-1,3-dihydroisobenzofuran-1-yl)tetrahydrofuran-3,4-diol] | 8.42 | 6.92 | 7.57 | 6.85
Nc1ncnc2c1ccn2[C@@H]1C[C@H]([C@@H]2OC(=O)c3cc(Cl)ccc32)[C@@H](O)[C@H]1O [Example 3A, (S)-3-((1S,2R,3S,4R)-4-(4-amino-7H-pyrrolo[2,3-d]pyrimidin-7-yl)-2,3-dihydroxycyclopentyl)-6-chloroisobenzofuran-1(3H)-one] | 7.68 |  | 5.79 | 
Cc1ncnc2c1ccn2[C@@H]1O[C@H]([C@@H]2OCCc3cc(Cl)c(Cl)cc32)[C@@H](O)[C@H]1O [Example 87, (2S,3S,4R,5R)-2-((R)-6,7-dichloroisochroman-1-yl)-5-(4-methyl-7H-pyrrolo[2,3-d]pyrimidin-7-yl)tetrahydrofuran-3,4-diol] | 8.11 | 6.92 |  | 6.29
Nc1ncnc2c1ccn2[C@@H]1O[C@H]([C@@H]2OCCc3cc(Cl)c(Cl)cc32)[C@@H](O)[C@H]1O [Example 88, (2R,3R,4S,5S)-2-(4-amino-7H-pyrrolo[2,3-d]pyrimidin-7-yl)-5-((R)-6,7-dichloroisochroman-1-yl)tetrahydrofuran-3,4-diol] | 8.80 | 7.73 |  | 7.22
Cc1ncnc2c1ccn2[C@@H]1O[C@H]([C@@H]2OCCc3cc(Cl)sc32)[C@@H](O)[C@H]1O [Example 89, (2S,3S,4R,5R)-2-((S)-2-chloro-4,7-dihydro-5H-thieno[2,3-c]pyran-7-yl)-5-(4-methyl-7H-pyrrolo[2,3-d]pyrimidin-7-yl)tetrahydrofuran-3,4-diol] | 7.80 | 7.07 |  | 6.75
Nc1ncnc2c1ccn2[C@@H]1O[C@H]([C@@H]2OCCc3cc(Cl)sc32)[C@@H](O)[C@H]1O [Example 90, (2R,3R,4S,5S)-2-(4-amino-7H-pyrrolo[2,3-d]pyrimidin-7-yl)-5-((S)-2-chloro-4,7-dihydro-5H-thieno[2,3-c]pyran-7-yl)tetrahydrofuran-3,4-diol] | 8.66 | 7.94 |  | 7.48
Nc1ncnc2c1ccn2[C@@H]1O[C@H]([C@@H]2OC[C@H](F)c3cc(Cl)ccc32)[C@@H](O)[C@H]1O [Example 95, (2R,3R,4S,5S)-2-(4-amino-7H-pyrrolo[2,3-d]pyrimidin-7-yl)-5-((1R,4R)-6-chloro-4-fluoroisochroman-1-yl)tetrahydrofuran-3,4-diol] | 8.80 | 7.95 |  | 7.73
Cc1ncnc2c1ccn2[C@@H]1O[C@H]([C@@H]2OCOc3c2ccc(F)c3F)[C@@H](O)[C@H]1O [Example 97, (2S,3S,4R,5R)-2-((R)-7,8-difluoro-4H-benzo[d][1,3]dioxin-4-yl)-5-(4-methyl-7H-pyrrolo[2,3-d]pyrimidin-7-yl)tetrahydrofuran-3,4-diol] | 8.33 | 7.29 |  | 6.93
Cc1ncnc2c1ccn2[C@@H]1O[C@H]([C@@H]2NCCc3cc(Cl)ccc32)[C@@H](O)[C@H]1O [Example 98, (2R,3S,4R,5R)-2-[(1R)-6-chloro-1,2,3,4-tetrahydroisoquinolin-1-yl]-5-(4-methylpyrrolo[2,3-d]pyrimidin-7-yl)tetrahydrofuran-3,4-diol] | 7.92 | 6.24 |  | 6.18
